Experimental data: patent US20130150399A1, “INHIBITORS OF THE UNFOLDED PROTEIN RESPONSE AND METHODS FOR THEIR USE” (The Board of Trustees of the Leland Stanford Junior …, priority 2006, published 2013)

Columns and labels:
[1] = system: HT1080 tumor xenografts; assay: Immunohistochemical analysis of tumor xenografts (pimonidazole, cleaved caspase-3); assay type: in vivo, mice; conditions: three doses, 50 mg/kg
Description: Tumor-bearing mice were injected i.p. with hypoxyprobe (50 mg/kg) 1 hour prior to sacrifice. Mice were euthanised under anesthesia by cervical dislocation, and tumors were surgically resected, embedded in OCT compound (Sakura Tissue Tek), and frozen at −80° C. Tumors were sectioned at 8 μm, fixed in 4% paraformaldehyde, and blocked in PBS-4% BSA. Tissue sections were incubated overnight in block solution containing antisera specific for hypoxyprobe (1:250) and cleaved caspase-3 (1:400). Slides were washed three times with block solution and incubated for 2 hours at room temperature with anti-mouse Alexa 488 or anti-rabbit Alexa 594 (Invitrogen, San Diego, Calif.). Slides were washed five times in block solution, and coverslips mounted with Permount supplemented with DAPI.
Immunohistochemical analysis of tumor xenografts. […] D. Quantification of tumor immunohistochemistry. At least 8 randomly chosen fields (>300 cells/field) per tumor were scored for pimonidazole and cleaved caspase-3 staining. A minimum of 3 tumors (250-300 mm^3 at harvest) were analyzed per treatment group. […]
We further examined tumors from control and irestatin-treated mice for differences in cell survival. […] The increase in apoptosis was most pronounced in hypoxic tissue regions of tumors, as determined by co-immunoreactivity for pimonidazole adducts (FIG. 14C, bottom panel). […]

[2] = system: XBP-luciferase reporter; assay: XBP-luciferase reporter assay under Tm or hypoxia, HT1080 cells; assay type: cell-based, human
Description: HT1080 cells stably expressing the XBP-luciferase construct were grown in 60 mm dishes to 60-70% confluency. Following hypoxia treatment, cells were washed twice with PBS, lysed in 400 μl 1× reporter lysis buffer (RLB) (Promega, Madison Wis.) for 30 min at 24° C. Lysates (100 μl) were mixed with an equal volume of luciferase substrate (Promega), and assayed using a luminometer. For 5×-UPRE-luciferase reporter assays, cells were co-transfected with the appropriate reporter plasmid and a control plasmid (pSV40-beta-gal) using Lipofectamine 2000 (Invitrogen, San Diego, Calif.). Twenty-four hours after transfection, fresh media was added, and cells were treated with Tm or shifted to hypoxia. After treatment, cells were lysed in 1×RLB and analyzed for luciferase activity as described above. Beta-galactosidase activity was determined using the beta-galactosidase enzyme assay system (Promega).
A. XBP-luciferase reporter construct. Firefly luciferase was inserted downstream of the IRE1α splice site in human XBP-1 to enable the conditional translation of luciferase under ER stress in an IRE1α-dependent manner. B. Selective inhibition of the XBP-luciferase reporter by irestatin 9389. HT1080 human fibrosarcoma cells stably expressing the XBP-luciferase reporter or CMV-luciferase were cultured in the presence of Tm (4 μg/ml) and Tg (0.4 μM) and irestatin 9389 at the indicated concentrations. After 24 hours, luciferase activity was analyzed in an automated plate reader. For each cell line, values are expressed as the percent inhibition of the median for Tm/Tg-treated wells, corrected for background. C. Structure of irestatin 9389. D. XBP-luciferase reporter assay. HT1080 cells stably expressing the XBP-luciferase reporter were exposed to Tm (4 μg/ml) for 24 hours or hypoxia (0.1% oxygen) for 24 or 48 hours, in the presence of DMSO or irestatin 9389 (1 μM) as indicated. Values are expressed as the fold increases over uninduced levels. E. 5×-UPRE reporter assay. HT1080 cells were co-transfected with 5×-UPRE luciferase and SV40-beta-gal reporter plasmids, followed by exposure to Tm or hypoxia as in D. For each condition, luciferase activity is normalized to beta-galactosidase expression levels as an internal control for transfection efficiency. F. Western immunoblot analysis of XBP-1s. HT1080 cells were left untreated (lane 2) or exposed to Tm (4 μg/ml) for 20 hours in the presence of DMSO vehicle (lane 1) or the indicated irestatins (2 μM; lanes 3-6). […] Cells were harvested, lysed, and analyzed by immunoblotting with antisera specific for HIF-1α (top), XBP-1s (middle) or actin (bottom). […] Total RNA was analyzed by Northern blotting using radiolabeled probes specific for P58^IPK or DER-1. […]

[3] = system: XBP-1s; assay: Western immunoblot of XBP-1s, HT1080 cells; assay type: cell-based, human
Description: Cells were harvested, lysed, and analyzed by Western blot using anti-XBP-1 antisera (lower panel) or anti-HIF-1 antisera (top panel) to confirm hypoxia exposure.
Cells (2×10^6) were cultured in 10-cm dishes, collected using a cell scraper at 4° C., and lysed by addition of 150 μl cell lysis buffer [50 mM Tris pH 7.4, 150 mM NaCl, 10% glycerol, 0.5% Triton X-100. 0.5% NP-40, 2 mM Na3VO4, 20 mM beta-glycerophosphate, 10 mM NaF, 1 mM DTT, 1 mM PMSF). Lysates were centrifuged for 5 min at 10,000×g, and proteins (˜40 μg) were resolved by SDS-PAGE followed by semi-dry transfer to nitrocellulose membranes. Membranes were blocked in TBS-5% milk supplemented with 0.1% Tween-20. […] After washing in block solution, immunoreactive material was detected by enhanced chemiluminescence (SuperSignal West Dura Extended, Pierce, Inc., Rockville, Ill.).
A. XBP-luciferase reporter construct. […] After 24 hours, luciferase activity was analyzed in an automated plate reader. For each cell line, values are expressed as the percent inhibition of the median for Tm/Tg-treated wells, corrected for background. […] Values are expressed as the fold increases over uninduced levels. […] Cells were harvested, lysed, and analyzed by immunoblotting with antisera specific for HIF-1α (top), XBP-1s (middle) or actin (bottom). […] Total RNA was analyzed by Northern blotting using radiolabeled probes specific for P58^IPK or DER-1. […]

## Cc1csc(NC(=O)CSc2nc3c(c(C(F)(F)F)c2C#N)CCC3)n1 [Compound 9389]
[1]
  cleaved caspase-3 in tumors relative to vehicle: significant increase in cleaved caspase-3
[1]; cleaved caspase-3 in pimonidazole-positive cells
  apoptotic fraction of hypoxic cells in tumors: ~45%
[2]; 1 μM, 48 hours of hypoxia (control 95-fold)
  hypoxia-induced increase of XBP-luciferase activity: robustly inhibited this response
[2]; 1 μM, hypoxia (<0.1% oxygen) for 24 or 48 hours
  activation of the XBP-luciferase reporter under hypoxia: diminished activation
[2]; Homo sapiens, HT-1080, irestatin 9389 1 μM, Tm 24 hours, read-out: inhibition of Tm-mediated activation of the XBP-luciferase reporter
  inhibition at 1 µM: > 90%
[3]; 2 μM, 24 hours of hypoxia
  levels of XBP-1s under hypoxia: decreased levels of XBP-1s
[3]; irestatins 2 μM, Tm (4 μg/ml) 20 hours
  accumulation of XBP-1s following treatment with Tm: blocked the accumulation of XBP-1s
